Laboratory results as given in ChEMBL document CHEMBL5678818, “Discovery of potent SOS1 inhibitors that block RAS activation via disruption of the RAS-SOS1 interaction” (Proc Natl Acad Sci U S A, 2019).

Legend:
[1] = molecular target: T1, Serine/threonine-protein kinase BRSK2 (Homo sapiens) (UniProt Q8IWQ3); experiment: Inhibition of BRSK2 (unknown origin) assessed as residual activity at 1000 nM by KINOMEscan analysis relative to control
T1 sequence (whole entry): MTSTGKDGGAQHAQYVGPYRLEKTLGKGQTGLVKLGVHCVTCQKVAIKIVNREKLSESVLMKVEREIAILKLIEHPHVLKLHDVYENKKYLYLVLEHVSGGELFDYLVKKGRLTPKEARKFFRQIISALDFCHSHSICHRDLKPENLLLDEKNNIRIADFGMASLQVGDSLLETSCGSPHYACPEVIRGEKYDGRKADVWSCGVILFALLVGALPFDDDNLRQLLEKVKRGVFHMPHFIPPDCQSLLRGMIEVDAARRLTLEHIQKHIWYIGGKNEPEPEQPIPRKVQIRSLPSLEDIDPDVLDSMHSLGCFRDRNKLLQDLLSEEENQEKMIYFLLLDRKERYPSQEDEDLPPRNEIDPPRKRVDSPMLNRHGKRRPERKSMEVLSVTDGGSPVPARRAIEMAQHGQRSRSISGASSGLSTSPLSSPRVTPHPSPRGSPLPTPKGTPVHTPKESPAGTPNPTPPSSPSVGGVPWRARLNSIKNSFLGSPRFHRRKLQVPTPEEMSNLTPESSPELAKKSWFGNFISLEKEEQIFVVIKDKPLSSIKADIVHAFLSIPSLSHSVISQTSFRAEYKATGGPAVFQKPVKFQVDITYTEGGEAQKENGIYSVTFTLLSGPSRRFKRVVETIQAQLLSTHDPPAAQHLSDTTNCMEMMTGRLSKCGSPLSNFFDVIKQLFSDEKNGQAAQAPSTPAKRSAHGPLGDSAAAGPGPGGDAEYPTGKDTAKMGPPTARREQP

[2] = molecular target: Casein kinase I isoform alpha (Homo sapiens) (UniProt P48729); experiment: Inhibition of CSNK1A1 (unknown origin) assessed as residual activity at 1000 nM by KINOMEscan analysis relative to control
[3] = molecular target: Tyrosine-protein kinase JAK1 (Homo sapiens) (UniProt P23458); experiment: Inhibition of JAK1 JH2 pseudokinase domain (unknown origin) assessed as residual activity at 1000 nM by KINOMEscan analysis relative to control
Tyrosine-protein kinase JAK1 (Homo sapiens), sequence (P23458 whole entry, the tested form may be a part): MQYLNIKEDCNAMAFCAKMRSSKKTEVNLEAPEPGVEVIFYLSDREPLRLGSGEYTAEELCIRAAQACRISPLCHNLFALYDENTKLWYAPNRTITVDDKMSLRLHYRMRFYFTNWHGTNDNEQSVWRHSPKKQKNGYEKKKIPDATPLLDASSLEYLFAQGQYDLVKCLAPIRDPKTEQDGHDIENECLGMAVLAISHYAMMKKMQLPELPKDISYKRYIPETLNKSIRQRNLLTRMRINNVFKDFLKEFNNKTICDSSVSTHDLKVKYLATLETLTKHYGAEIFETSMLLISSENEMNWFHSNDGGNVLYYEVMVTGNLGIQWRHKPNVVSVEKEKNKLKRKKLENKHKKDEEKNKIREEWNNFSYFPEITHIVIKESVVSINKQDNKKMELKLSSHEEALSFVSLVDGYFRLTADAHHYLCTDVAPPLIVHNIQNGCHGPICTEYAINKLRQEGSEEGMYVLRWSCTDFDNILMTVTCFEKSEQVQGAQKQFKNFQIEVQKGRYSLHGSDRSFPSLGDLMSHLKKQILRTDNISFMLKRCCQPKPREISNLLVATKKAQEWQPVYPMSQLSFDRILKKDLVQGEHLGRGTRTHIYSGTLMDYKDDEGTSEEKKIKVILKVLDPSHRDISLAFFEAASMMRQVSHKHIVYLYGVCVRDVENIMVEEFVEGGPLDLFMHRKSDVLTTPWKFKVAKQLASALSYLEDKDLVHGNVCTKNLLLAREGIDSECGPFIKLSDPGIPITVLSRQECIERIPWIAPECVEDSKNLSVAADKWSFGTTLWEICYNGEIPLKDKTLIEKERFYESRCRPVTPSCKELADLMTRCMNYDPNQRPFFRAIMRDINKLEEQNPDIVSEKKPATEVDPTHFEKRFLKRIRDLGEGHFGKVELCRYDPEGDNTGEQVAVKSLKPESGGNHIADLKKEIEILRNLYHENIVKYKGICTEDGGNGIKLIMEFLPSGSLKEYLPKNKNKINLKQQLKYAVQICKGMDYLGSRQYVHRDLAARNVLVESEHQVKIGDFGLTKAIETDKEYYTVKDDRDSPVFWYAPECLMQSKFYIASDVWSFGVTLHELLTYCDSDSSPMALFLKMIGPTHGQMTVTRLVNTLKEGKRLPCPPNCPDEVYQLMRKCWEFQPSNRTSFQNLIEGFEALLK

[4] = tested on: Mast/stem cell growth factor receptor Kit (Homo sapiens), P10721 [A829P]; experiment: Inhibition of KIT A829P mutant (unknown origin) assessed as residual activity at 1000 nM by KINOMEscan analysis relative to control
Mast/stem cell growth factor receptor Kit (Homo sapiens), P10721 [A829P], sequence (P10721 whole entry A829P): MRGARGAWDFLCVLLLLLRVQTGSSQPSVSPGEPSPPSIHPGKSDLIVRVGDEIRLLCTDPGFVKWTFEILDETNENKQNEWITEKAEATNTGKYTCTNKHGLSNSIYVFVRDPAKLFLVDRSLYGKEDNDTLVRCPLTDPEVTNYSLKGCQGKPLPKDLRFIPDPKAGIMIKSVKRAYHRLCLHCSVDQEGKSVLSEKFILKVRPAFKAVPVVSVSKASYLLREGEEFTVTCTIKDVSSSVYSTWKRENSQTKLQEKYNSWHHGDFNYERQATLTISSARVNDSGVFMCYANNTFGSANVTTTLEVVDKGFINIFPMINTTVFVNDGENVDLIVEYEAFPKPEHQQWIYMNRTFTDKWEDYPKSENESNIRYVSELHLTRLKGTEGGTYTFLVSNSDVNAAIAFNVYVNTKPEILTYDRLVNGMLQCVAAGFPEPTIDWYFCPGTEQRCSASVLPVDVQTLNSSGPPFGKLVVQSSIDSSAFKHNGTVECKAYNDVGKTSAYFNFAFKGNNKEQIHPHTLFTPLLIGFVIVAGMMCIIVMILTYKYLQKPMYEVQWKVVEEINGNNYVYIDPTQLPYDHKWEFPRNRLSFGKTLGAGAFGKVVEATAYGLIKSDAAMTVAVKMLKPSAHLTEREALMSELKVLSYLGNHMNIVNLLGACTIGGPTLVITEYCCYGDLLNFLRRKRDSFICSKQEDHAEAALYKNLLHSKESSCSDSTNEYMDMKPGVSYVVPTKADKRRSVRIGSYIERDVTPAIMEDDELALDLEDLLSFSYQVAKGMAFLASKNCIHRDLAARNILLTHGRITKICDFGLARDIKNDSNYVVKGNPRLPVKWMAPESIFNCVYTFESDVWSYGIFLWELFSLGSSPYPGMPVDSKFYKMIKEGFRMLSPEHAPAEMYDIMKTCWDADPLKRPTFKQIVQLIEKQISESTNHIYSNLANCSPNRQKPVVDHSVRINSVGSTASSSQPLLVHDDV

[5] = molecular target: Serine/threonine-protein kinase 38 (Homo sapiens) (UniProt Q15208); experiment: Inhibition of NDR1 (unknown origin) assessed as residual activity at 1000 nM by KINOMEscan analysis relative to control
Serine/threonine-protein kinase 38 (Homo sapiens), sequence (Q15208 2-465 limits assumed): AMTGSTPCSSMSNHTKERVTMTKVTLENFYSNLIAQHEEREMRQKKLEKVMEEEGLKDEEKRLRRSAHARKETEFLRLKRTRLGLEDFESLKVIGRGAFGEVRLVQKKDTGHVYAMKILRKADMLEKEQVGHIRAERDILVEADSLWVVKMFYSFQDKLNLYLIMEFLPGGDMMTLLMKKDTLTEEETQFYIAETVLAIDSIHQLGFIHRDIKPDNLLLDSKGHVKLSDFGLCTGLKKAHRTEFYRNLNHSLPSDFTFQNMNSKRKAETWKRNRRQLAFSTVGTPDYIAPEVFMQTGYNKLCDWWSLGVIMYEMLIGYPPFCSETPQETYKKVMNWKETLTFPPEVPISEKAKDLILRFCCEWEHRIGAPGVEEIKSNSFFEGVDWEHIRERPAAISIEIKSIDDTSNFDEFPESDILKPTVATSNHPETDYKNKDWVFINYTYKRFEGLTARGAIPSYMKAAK

[6] = molecular target: Mitogen-activated protein kinase 14 (Homo sapiens) (UniProt Q16539); experiment: Inhibition of p38-alpha (unknown origin) assessed as residual activity at 1000 nM by KINOMEscan analysis relative to control
Mitogen-activated protein kinase 14 (Homo sapiens), sequence (Q16539 whole entry): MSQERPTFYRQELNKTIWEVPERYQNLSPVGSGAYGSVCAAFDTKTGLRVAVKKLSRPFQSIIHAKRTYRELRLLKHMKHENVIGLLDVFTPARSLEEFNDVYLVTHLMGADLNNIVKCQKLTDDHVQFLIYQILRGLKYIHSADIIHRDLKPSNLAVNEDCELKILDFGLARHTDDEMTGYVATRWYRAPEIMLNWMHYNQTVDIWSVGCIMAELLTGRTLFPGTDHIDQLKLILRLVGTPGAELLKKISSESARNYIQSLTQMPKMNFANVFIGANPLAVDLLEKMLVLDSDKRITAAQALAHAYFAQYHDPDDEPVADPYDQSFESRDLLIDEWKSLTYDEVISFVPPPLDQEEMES

[7] = molecular target: Serine/threonine-protein kinase PAK 5 (Homo sapiens) (UniProt Q9P286); experiment: Inhibition of PAK7 (unknown origin) assessed as residual activity at 1000 nM by KINOMEscan analysis relative to control
Serine/threonine-protein kinase PAK 5 (Homo sapiens), sequence (Q9P286 whole entry, looked up, canonical isoform): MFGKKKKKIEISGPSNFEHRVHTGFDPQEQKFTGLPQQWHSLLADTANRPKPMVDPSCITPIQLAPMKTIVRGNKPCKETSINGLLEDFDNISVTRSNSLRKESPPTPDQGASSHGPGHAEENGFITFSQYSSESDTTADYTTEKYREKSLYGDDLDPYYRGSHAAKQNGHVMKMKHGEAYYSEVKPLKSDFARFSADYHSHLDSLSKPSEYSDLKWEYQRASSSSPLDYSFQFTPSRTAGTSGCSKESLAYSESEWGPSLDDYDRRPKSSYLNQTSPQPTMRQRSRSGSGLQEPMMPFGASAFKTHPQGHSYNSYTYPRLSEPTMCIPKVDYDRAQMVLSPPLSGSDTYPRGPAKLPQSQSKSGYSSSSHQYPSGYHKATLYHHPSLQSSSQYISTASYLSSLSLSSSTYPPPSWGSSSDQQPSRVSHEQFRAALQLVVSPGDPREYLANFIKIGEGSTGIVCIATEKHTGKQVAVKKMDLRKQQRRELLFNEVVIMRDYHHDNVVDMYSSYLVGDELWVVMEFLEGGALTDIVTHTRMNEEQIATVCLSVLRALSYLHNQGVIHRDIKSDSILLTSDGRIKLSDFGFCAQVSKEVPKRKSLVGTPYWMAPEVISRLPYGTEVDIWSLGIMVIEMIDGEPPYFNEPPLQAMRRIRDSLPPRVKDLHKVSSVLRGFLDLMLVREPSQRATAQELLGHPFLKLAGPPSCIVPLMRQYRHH

[8] = molecular target: Phosphatidylinositol 4,5-bisphosphate 3-kinase catalytic subunit beta isoform (Homo sapiens) (UniProt P42338); experiment: Inhibition of PIK3CB (unknown origin) assessed as residual activity at 1000 nM by KINOMEscan analysis relative to control
[9] = molecular target: Serine/threonine-protein kinase pim-2 (Homo sapiens) (UniProt Q9P1W9); experiment: Inhibition of PIM2 (unknown origin) assessed as residual activity at 1000 nM by KINOMEscan analysis relative to control
Serine/threonine-protein kinase pim-2 (Homo sapiens), sequence (Q9P1W9 whole entry, looked up): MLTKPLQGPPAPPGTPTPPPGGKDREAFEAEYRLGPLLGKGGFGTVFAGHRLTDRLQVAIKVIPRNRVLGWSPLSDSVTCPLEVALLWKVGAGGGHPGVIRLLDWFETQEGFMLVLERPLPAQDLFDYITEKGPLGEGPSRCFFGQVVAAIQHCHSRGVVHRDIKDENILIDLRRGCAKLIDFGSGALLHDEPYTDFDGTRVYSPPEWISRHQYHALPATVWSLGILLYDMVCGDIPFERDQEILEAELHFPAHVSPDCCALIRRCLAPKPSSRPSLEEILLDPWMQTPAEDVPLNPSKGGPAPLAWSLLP

[10] = molecular target: T2, Serine/threonine-protein kinase Sgk2 (Homo sapiens) (UniProt Q9HBY8); experiment: Inhibition of SGK2 (unknown origin) assessed as residual activity at 1000 nM by KINOMEscan analysis relative to control
T2 sequence (whole entry): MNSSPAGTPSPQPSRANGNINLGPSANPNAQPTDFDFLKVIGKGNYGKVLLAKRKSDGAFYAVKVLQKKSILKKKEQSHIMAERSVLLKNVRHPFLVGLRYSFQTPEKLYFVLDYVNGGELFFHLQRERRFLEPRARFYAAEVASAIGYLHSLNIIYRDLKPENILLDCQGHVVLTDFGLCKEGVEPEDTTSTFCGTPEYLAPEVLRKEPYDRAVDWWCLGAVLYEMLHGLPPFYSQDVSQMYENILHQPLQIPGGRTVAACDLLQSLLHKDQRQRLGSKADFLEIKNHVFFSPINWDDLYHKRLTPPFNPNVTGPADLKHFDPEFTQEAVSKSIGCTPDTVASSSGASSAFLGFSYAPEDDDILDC

[11] = molecular target: SRSF protein kinase 2 (Homo sapiens) (UniProt P78362); experiment: Inhibition of SRPK2 (unknown origin) assessed as residual activity at 1000 nM by KINOMEscan analysis relative to control
SRSF protein kinase 2 (Homo sapiens), sequence (P78362 whole entry, looked up): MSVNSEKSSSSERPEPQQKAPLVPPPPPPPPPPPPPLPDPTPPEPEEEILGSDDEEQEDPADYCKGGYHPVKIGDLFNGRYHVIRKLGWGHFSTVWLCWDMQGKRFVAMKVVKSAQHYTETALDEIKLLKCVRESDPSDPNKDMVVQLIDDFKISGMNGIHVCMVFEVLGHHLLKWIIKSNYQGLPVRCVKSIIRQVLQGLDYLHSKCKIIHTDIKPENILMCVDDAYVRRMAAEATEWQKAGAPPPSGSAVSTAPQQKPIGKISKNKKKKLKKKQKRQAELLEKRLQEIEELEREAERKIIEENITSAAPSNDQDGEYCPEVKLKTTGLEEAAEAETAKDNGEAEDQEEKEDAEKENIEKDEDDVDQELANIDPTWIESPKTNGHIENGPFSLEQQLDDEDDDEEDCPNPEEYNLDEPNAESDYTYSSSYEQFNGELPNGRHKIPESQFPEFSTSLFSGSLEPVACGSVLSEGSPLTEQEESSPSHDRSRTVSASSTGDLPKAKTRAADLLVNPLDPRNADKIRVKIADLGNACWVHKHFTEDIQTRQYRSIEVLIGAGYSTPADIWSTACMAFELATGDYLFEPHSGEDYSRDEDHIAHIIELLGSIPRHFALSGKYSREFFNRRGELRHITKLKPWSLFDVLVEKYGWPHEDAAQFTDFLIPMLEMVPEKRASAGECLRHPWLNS

[12] = molecular target: Serine/threonine-protein kinase 16 (Homo sapiens) (UniProt O75716); experiment: Inhibition of STK16 (unknown origin) assessed as residual activity at 1000 nM by KINOMEscan analysis relative to control
Serine/threonine-protein kinase 16 (Homo sapiens), sequence (O75716 whole entry): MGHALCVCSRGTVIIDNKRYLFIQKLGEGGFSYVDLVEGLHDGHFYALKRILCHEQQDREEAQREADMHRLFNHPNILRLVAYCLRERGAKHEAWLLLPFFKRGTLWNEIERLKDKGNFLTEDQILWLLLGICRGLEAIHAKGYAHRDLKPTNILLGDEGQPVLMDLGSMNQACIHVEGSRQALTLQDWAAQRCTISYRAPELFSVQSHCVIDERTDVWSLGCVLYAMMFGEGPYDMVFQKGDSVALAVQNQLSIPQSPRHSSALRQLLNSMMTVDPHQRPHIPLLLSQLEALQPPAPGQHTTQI

[13] = molecular target: Serine/threonine-protein kinase WNK1 (Homo sapiens) (UniProt Q9H4A3); experiment: Inhibition of WNK1 (unknown origin) assessed as residual activity at 1000 nM by KINOMEscan analysis relative to control
[14] = molecular target: T3, Tyrosine-protein kinase ZAP-70 (Homo sapiens) (UniProt P43403); experiment: Inhibition of ZAP70 (unknown origin) assessed as residual activity at 1000 nM by KINOMEscan analysis relative to control
T3 sequence (whole entry): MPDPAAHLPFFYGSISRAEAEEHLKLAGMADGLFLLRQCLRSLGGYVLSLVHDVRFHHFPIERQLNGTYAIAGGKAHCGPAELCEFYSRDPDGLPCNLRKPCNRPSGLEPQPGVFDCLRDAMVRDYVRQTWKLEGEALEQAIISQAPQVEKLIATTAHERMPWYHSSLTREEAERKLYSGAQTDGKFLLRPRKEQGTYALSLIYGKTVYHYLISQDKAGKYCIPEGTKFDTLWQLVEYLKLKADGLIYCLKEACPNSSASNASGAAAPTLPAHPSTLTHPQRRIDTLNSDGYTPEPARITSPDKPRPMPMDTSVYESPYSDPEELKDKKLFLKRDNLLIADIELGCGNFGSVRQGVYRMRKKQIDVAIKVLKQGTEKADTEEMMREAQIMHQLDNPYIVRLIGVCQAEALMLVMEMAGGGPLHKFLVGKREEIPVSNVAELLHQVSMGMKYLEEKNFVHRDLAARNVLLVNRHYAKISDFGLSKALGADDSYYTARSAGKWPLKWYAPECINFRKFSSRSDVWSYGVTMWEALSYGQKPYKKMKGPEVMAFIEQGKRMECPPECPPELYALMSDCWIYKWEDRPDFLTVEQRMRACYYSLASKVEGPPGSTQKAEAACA

SMILES	Activity [1] [%]	Activity [2] [%]	Activity [3] [%]	Activity [4] [%]	Activity [5] [%]	Activity [6] [%]	Activity [7] [%]	Activity [8] [%]	Activity [9] [%]	Activity [10] [%]	Activity [11] [%]	Activity [12] [%]	Activity [13] [%]	Activity [14] [%]
COc1cc2nc(C)nc(N[C@H](C)c3cccc(-c4cn[nH]c4)c3)c2cc1OC	85	76	78	93	64	98	96	89	88	94	94	74	86	82
COc1cc2ncnc(N[C@H](C)c3cccc4ccccc34)c2cc1OC	78	96	100	94	79	58	100	13	96	51	93	93	100	97
